This note sets out measurements from ChEMBL document CHEMBL3774361, “Synthesis and evaluation of thieno[2,3-d]pyrimidin-4(3H)-ones as potential antitubercular agents” (Medchemcomm, 2015).

Data set [1] can be described thus: Selectivity index, ratio of GI50 for human THP1 cells to MIC90 for active stage of Mycobacterium bovis BCG ATCC 35743. Type of data set: toxicity, cell-based, THP-1. As to conditions: read-out: Selectivity Index.
Data set [2] can be described thus: Selectivity index, ratio of GI50 for human THP1 cells to MIC90 for active stage of Mycobacterium tuberculosis H37Ra. As to conditions: read-out: Selectivity Index. Type of data set: toxicity, cell-based, THP-1.
The nature of data set [3]: Selectivity index, ratio of GI50 for human HCT116 cells to MIC90 for active stage of Mycobacterium bovis BCG ATCC 35743. Type of data set: toxicity, cell-based, HCT-116. As to conditions: read-out: Selectivity Index.
A short description of data set [4]: Selectivity index, ratio of GI50 for human HCT116 cells to MIC90 for active stage of Mycobacterium tuberculosis H37Ra. Type of data set: toxicity, cell-based, HCT-116. The following applies: read-out: Selectivity Index.
Data set [5] in a line: Selectivity index, ratio of GI50 for human A549 cells to MIC90 for active stage of Mycobacterium bovis BCG ATCC 35743. Type of data set: toxicity, cell-based. The following applies: read-out: Selectivity Index.
Data set [6] can be described thus: Selectivity index, ratio of GI50 for human A549 cells to MIC90 for active stage of Mycobacterium tuberculosis H37Ra. Type of data set: toxicity, cell-based. The following applies: read-out: Selectivity Index.
Data set [7] in a line: Selectivity index, ratio of GI50 for human MCF7 cells to MIC90 for active stage of Mycobacterium bovis BCG ATCC 35743. Type of data set: toxicity, cell-based. The following applies: read-out: Selectivity Index.
Data set [8] is described as follows: Selectivity index, ratio of GI50 for human MCF7 cells to MIC90 for active stage of Mycobacterium tuberculosis H37Ra. Type of data set: toxicity, cell-based. As to conditions: read-out: Selectivity Index.
The nature of data set [9]: Cytotoxicity against human THP1 cells incubated for 1 to 11 days by MTT assay. Type of data set: cell-based, THP-1.
A short description of data set [10]: Cytotoxicity against human HCT116 cells incubated for 1 to 11 days by MTT assay. Type of data set: cell-based, HCT-116.
Data set [11] relates to Mycobacterium tuberculosis. In words: Antitubercular activity against active stage of Mycobacterium tuberculosis H37Ra assessed as cell viability after 8 days by XTT reduction menadione assay. As to conditions: 192 h. Type of data set: functional.
Data set [12] deals with Mycobacterium tuberculosis. As to the kind of experiment: Antitubercular activity against dormant stage of Mycobacterium tuberculosis H37Ra assessed as cell viability after 12 days by XTT reduction menadione assay. The following applies: 288 h. Type of data set: functional.
Data set [13] can be described thus: Antibacterial activity against active stage of Mycobacterium bovis BCG ATCC 35743 assessed as cell viability after 8 days by nitrate reductase assay. Type of data set: functional, Mycobacterium bovis BCG str. ATCC 35743. The following applies: Mycobacterium tuberculosis variant bovis BCG, ATCC 35743, 192 h.
A short description of data set [14]: Antibacterial activity against dormant stage of Mycobacterium bovis BCG ATCC 35743 assessed as cell viability after 12 days by nitrate reductase assay. Type of data set: functional, Mycobacterium bovis BCG str. ATCC 35743. The following applies: Mycobacterium tuberculosis variant bovis BCG, ATCC 35743, 288 h.
A short description of data set [15]: Cytotoxicity against human MCF7 cells incubated for 1 to 11 days by MTT assay. Type of data set: cell-based.
A short description of data set [16]: (§1) Cytotoxicity against human A549 cells incubated for 1 to 11 days by MTT assay. Type of data set: cell-based. The following applies: A549 cells.
In another data set the test system is A549. The description is as §1. The following applies: a549. Type of data set: cell-based.

Values after ≈ are worked out from the molar mass of the structure shown.

Consider `CCCCCCc1cc2c(=O)n(CCN=[N+]=[N-])cnc2s1`, for which the selectivity ratio stood at 25 in data set [1]; 12 in [2]; 4 in [3]; 2 in data set [4]; 4 in [5]; 2 in data set [6]. Besides, the selectivity ratio in data set [7] is > 25; in data set [8], 12. The GI50 is > 100 µg/mL in data set [9], 14.7 µg/mL (≈ 48.1 µM) in data set [10], > 100 µg/mL in data set [15] and 16.2 µg/mL (≈ 52.9 µM) in [16]. In addition, the MIC90 in data set [11] worked out at 8.42 µg/mL (≈ 27.6 µM); in data set [12], 11.5 µg/mL (≈ 37.8 µM); in data set [13], 4.08 µg/mL (≈ 13.4 µM); in data set [14], 4.51 µg/mL (≈ 14.8 µM). Besides, the GI90 in the data set with A549 worked out at 74.66 µg/mL (≈ 244 µM).
